Assay results: publication PMC6748860, “High-resolution crystal structures of a myxobacterial phytochrome at cryo and room temperatures” (Structural Dynamics, 2019)

Key:
[1] = target: T1, SaBphP2 PCM (Allostigmatella aurantiaca, UniProt Q09E27, H275T); assay: X-ray crystal structure ([…] Å, […] K); assay type: binding; details: covalent (thioether to Cys13); Pr state, dark; chromophore
T1 construct: gene STIAU_8420; photosensory core module PAS-GAF-PHY, residues 1-497, histidine kinase domain removed; homodimer; BV on Cys13

[2] = target: T2, SaBphP2 PCM (Allostigmatella aurantiaca, UniProt Q09E27); assay: X-ray crystal structure ([…] Å, […] K; SFX […] Å, […] K); assay type: binding; details: covalent (thioether to Cys13); Pr state, dark; chromophore
T2 construct: gene STIAU_8420; photosensory core module PAS-GAF-PHY, residues 1-497, histidine kinase domain removed; homodimer; BV on Cys13
T2 sequence (Q09E27 entry or part of it): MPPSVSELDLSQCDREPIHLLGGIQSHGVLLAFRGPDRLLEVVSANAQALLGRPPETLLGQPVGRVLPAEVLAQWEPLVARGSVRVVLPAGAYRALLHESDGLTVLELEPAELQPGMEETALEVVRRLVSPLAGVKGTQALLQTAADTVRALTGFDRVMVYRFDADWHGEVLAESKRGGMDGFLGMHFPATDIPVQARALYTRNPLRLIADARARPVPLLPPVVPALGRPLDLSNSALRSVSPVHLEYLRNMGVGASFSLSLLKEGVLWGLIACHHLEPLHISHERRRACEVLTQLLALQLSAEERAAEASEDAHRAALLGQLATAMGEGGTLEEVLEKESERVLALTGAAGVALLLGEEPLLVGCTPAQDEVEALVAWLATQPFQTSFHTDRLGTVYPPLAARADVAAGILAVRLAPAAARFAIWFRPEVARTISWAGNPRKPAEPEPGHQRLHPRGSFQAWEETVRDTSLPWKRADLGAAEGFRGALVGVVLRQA

T1 sequence (Q09E27 entry or part of it H275T): as the sequence (Q09E27 entry or part of it) above, with H275T counted along it

`C=CC1=C(C)C(=Cc2[nH]c(C=C3N=C(C=C4NC(=O)C(C)=C4C=C)C(C)=C3CCC(=O)O)c(CCC(=O)O)c2C)NC1=O` [biliverdin] was tested, and the “X-ray crystal structure (2.2 Å, 100 K)” value [1] was “The cryostructure of the His275Thr mutant is essentially identical to that of the wild-type” and the “X-ray crystal structure (1.65 Å, 100 K; SFX 2.1 Å, 293 K)” value [2] was “The BV chromophore is bound to Cys13 close to the N-terminus”.
